Results reported in PMC11042424, “Development of a First-in-Class RIPK1 Degrader to Enhance Antitumor Immunity” (Research Square, 2024).

How the values were obtained:
B16F10 tumors = experiment: Five-day treatment of B16F10 tumors: cell death and tumor immune microenvironment; format: in vivo, C57BL/6J mice
Description: Figure 5 LD4172 alters the tumor immune microenvironment. A. Representative immunofluorescent images depict RIPK1, Calreticulin, CD8, CD4, Foxp3, or F4/80, as well as hematoxylin and eosin (H&E) images, alongside representative images illustrating cleaved caspase3/7 levels in B16F10 tumors under the indicated treatment for five days. n = 4–6 independent fields per group. Scale bars are shown as follows: 20 μm, objective 60X; 200 μm, objective 60X. B. The mouse plasma HMGB1 level from different treatment groups (n=8). C-G. Flow cytometry quantification of PD1+CD8+ T cells (C), CD4+ T cells (D), cDC cells (E), macrophages (F), and CD8+ T cells (G) in B16F10 tumors following 5 days of indicated treatment (n = 10/group). H. Flow cytometric quantification of IFNγ+ CD8+ T cells in B16F10 tumors treated with the indicated treatments for 5 days and stimulated with PMA/ionomycin in vitro for 6 h (n = 10/group). I. Tumor volume (mm3) of vehicle-, anti-PD1-, LD4172-, anti-PD1+LD4172-, and anti-PD1+LD4172+anti-CD8–treated B16F10 tumors (n=8). J. Heat map showing log 10-fold changes in the concentration of mouse plasma cytokines normalized by the mean value of control mice (n=8). For all experiments: LD4172: 20 mg/kg; anti-PD1 antibody: 100 μg/mice; Combo: LD4172 plus anti-PD1. Representative data from at least three independent experiments are shown. Data are expressed as the mean ± SEM. * p<0.05; ** p<0.01; *** p<0.001; **** p<0.0001, respectively. “ns” indicates no statistical significance.
Tumors were collected on day 13, weighed, mechanically diced, and digested with liberase (2 mg/mL, 05401020001, Roche) and DNase I (50 μg/mL, 11284932001, Sigma-Aldrich) at 37°C for 30 minutes with rotation. Single-cell suspensions were obtained by filtering the digested tissues through a 45 μm strainer, after which erythrocytes were removed using 1x RBC lysis buffer (420301, Biolegend). To stain the cell surface markers of tumor-infiltrating lymphocytes (TILs), single-cell suspensions were blocked with anti-mouse CD16/32 (156603, BioLegend) for 10 minutes on ice, and then incubated with fluorochrome-labeled antibodies diluted with staining buffer (1:50, PBS, 2% FBS, 0.1% EDTA) for 30 minutes on ice in the dark. Dead cells were excluded using DAPI (1:1,000, BioLegend). After washing, cells were resuspended in 300–500 μL staining buffer for flow cytometry analysis. For intracellular cytokine staining, cells were incubated in culture medium (RPMI-1640, 10% FBS, Brefeldin A or Cell Activation Cocktail (with Brefeldin A)) at 37°C for 6 h. Cells were stained with eBioscience™ Fixable Viability Dye eFluor™ 450, TruStain FcX™ PLUS and surface CD45, CD3ε, CD8a. Cells were fixed-permeabilized by Intracellular Fixation & Permeabilization Buffer Set (Biolegend, 421403) according to the manufacturer’s protocol. Then cells were stained with anti-IFNγ (XMG1.2) for 1 hour at room temperature (RT). Cells were resuspended in FACS buffer and subjected to BD LSR-II for analysis.
Mouse serum was analyzed using multiplex immunoassays designed for mice (Mouse Cytokine Array / Chemokine Array 31-Plex (MD31) from Eve Technologies), with 8 replicates from each group. Heatmaps display relative cytokine expression values normalized to vehicle-treated samples. Serum HMGB1 was analyzed by ELISA (NOVUS, NBP2–62767) according to the manufacturer’s protocol.
For H&E staining, the hydrated slides were stained with hematoxylin and eosin. For IHC analysis, after hydration, the sections were subjected to antigen retrieval by incubating in citrate buffer (pH 6.0), Tris EDTA buffer (pH 9.0), or EDTA buffer (pH 8.0) at 121°C for 15 minutes. Endogenous peroxidase was blocked with 3% H2O2 in PBS, and non-specific binding was blocked with 2.5% normal serum for 1 hour at room temperature. The sections were then incubated with the respective primary antibodies overnight at 4°C. […]

[1] = Stability in human primary hepatocytes; format: in vitro ADME

## Cc1ncsc1-c1ccc([C@H](C)NC(=O)[C@@H]2C[C@@H](O)CN2C(=O)[C@@H](NC(=O)CCCCCCCCCCC(=O)NCCCn2cc(-c3ccc4c(c3)CCN4C(=O)Cc3cccc(OC(F)(F)F)c3)c3c(N)ncnc32)C(C)(C)C)cc1 [LD4172]
B16F10 tumors; 20 mg/kg
  RIPK1 degradation in the tumor: substantial degradation of RIPK1
  cell death in the tumor (H&E): significant cell death
  cleaved caspase 3/7 levels in tumors: notable increase
  plasma HMGB1 levels: significant increase
B16F10 tumors; 20 mg/kg, flow cytometry
  CD4 + T cells, conventional dendritic cells and macrophages within the TME: notable expansion
B16F10 tumors; LD4172 20 mg/kg plus anti-PD1 100 μg
  cytotoxic CD8 + T cells within the TME, combined with anti-PD1: increased infiltration
[1]
  half-life: 56.3 min
